{
  "source": "patent US3966930A",
  "about": "“Phenothiazine derivatives, compositions thereof and methods of preparation thereof” (Kefalas A/S, priority 1973, dated 1976)",
  "tested_on": "methylphenidate",
  "test": "Methylphenidate antagonism in mice (rapid screening test for neuroleptic drugs)",
  "format": "in vivo, NMRI male mice",
  "settings": "Mus musculus, ip",
  "experimental": "40 grams of 4-(2-hydroxyethyl)piperidine were then added, and the mixture heated for 17 hours at 90° Centigrade. The mixture was cooled, poured into water, extracted with 500 milliliters of ether, the ether extract washed five times with water and dried over anhydrous magnesium sulphate. The oxalate of 2-trifluoromethyl-7-fluoro-10-(3'-(4-(2-hydroxyethyl)piperidin-1-yl)propyl)phenothiazine was precipitated from acetone-/ether (1:1) and melts at 76°-80° Centigrade. The pharmacological testing of the compounds of the present invention consisted of a standard and reliable, published test showing the neuroleptic activity of the compounds in that they antagonize central nervous stimulating compounds such as amphetamine and methylphenidate. […] 1971, 29, suppl. 4, 44.\nThe test may briefly be described as follows:\nAs animals were used NMRI male mice weighing 18-25 grams. 3 × 2 mice are used for each dose level.\n2, 6 or 24 hours after i.p.injection of test substance, methylphenidate, 60 mg/kg, is injected s.c. After administration of methylphenidate the mice are placed in the observation cages, 2 in each cage, where they remain for 2, 6 or 24 hours. The cages are placed on corrugated paper, the corrugations facing upwards. It is examined whether or not the mice have been biting the corrugated paper. […] If one or more of the control pairs have also not been biting the corrugated paper, the test has to be repeated on a new set of mice. The following novel substances of Formula I were tested: […]\nAs reference substances were used the corresponding known phenothiazines having no fluorine substitution at position 7, namely fluphenazine, perphenazine, thioproperazine, acetophenazine and chlorpromazine respectively.",
  "key": {"[1]": {"settings": "2 h after i.p. injection of test substance, methylphenidate 60 mg/kg s.c., mice, read-out: Methylphenidate Antagonism ED50, 2h"}, "[2]": {"settings": "6 h after i.p. injection of test substance, methylphenidate 60 mg/kg s.c., mice, read-out: Methylphenidate Antagonism ED50, 6h"}, "[3]": {"settings": "24 h after i.p. injection of test substance, methylphenidate 60 mg/kg s.c., mice, read-out: Methylphenidate Antagonism ED50, 24h"}, "[4]": {"settings": "2 h, read-out: Methylphenidate Antagonism ED50, 2h"}, "[5]": {"settings": "6 h, read-out: Methylphenidate Antagonism ED50, 6h"}, "[6]": {"settings": "24 h, read-out: Methylphenidate Antagonism ED50, 24h"}},
  "note": "Read-outs that look alike come from different tables or passages of the source.",
  "data": [
    {"smiles": "OCCN1CCN(CCCN2c3ccc(F)cc3Sc3ccc(C(F)(F)F)cc32)CC1", "note": "[Lu 10-116, 2-trifluoromethyl-7-fluoro-10-(3'-(4-(2-hydroxyethyl)-piperazine-1-yl)propyl)phenothiazine]", "values": [
      {"measurement": "ED50", "setting": "[1]", "value": 0.11, "unit": "mg/kg"},
      {"measurement": "ED50", "setting": "[2]", "value": 0.01, "unit": "mg/kg"},
      {"measurement": "ED50", "setting": "[3]", "value": 0.08, "unit": "mg/kg"}
    ]},
    {"smiles": "CN(C)CCCN1c2ccccc2Sc2ccc(Cl)cc21", "note": "[Chlorpromazine]", "values": [
      {"measurement": "ED50", "setting": "[4]", "value": 3.3, "unit": "mg/kg"},
      {"measurement": "ED50", "setting": "[5]", "value": "> 20", "unit": "mg/kg"},
      {"measurement": "ED50", "setting": "[6]", "value": "> 20", "unit": "mg/kg"}
    ]},
    {"smiles": "CN1CCN(CCCN2c3ccccc3Sc3ccc(S(=O)(=O)N(C)C)cc32)CC1", "note": "[Thioproperazine]", "values": [
      {"measurement": "ED50", "setting": "[1]", "value": 0.28, "unit": "mg/kg"},
      {"measurement": "ED50", "setting": "[2]", "value": 1.2, "unit": "mg/kg"},
      {"measurement": "ED50", "setting": "[3]", "value": "> 5", "unit": "mg/kg"}
    ]},
    {"smiles": "OCCN1CCN(CCCN2c3ccccc3Sc3ccc(Cl)cc32)CC1", "note": "[Perphenazine]", "values": [
      {"measurement": "ED50", "setting": "[4]", "value": 0.08, "unit": "mg/kg"},
      {"measurement": "ED50", "setting": "[5]", "value": 0.55, "unit": "mg/kg"},
      {"measurement": "ED50", "setting": "[6]", "value": "> 5", "unit": "mg/kg"}
    ]},
    {"smiles": "OCCN1CCN(CCCN2c3ccccc3Sc3ccc(C(F)(F)F)cc32)CC1", "note": "[Fluphenazine]", "values": [
      {"measurement": "ED50", "setting": "[1]", "value": 0.08, "unit": "mg/kg"},
      {"measurement": "ED50", "setting": "[2]", "value": 0.03, "unit": "mg/kg"},
      {"measurement": "ED50", "setting": "[3]", "value": "> 2.5", "unit": "mg/kg"}
    ]},
    {"smiles": "CC(=O)c1ccc2c(c1)N(CCCN1CCN(CCO)CC1)c1ccccc1S2", "note": "[Acetophenazine]", "values": [
      {"measurement": "ED50", "setting": "[1]", "value": 0.2, "unit": "mg/kg"},
      {"measurement": "ED50", "setting": "[2]", "value": 4.4, "unit": "mg/kg"},
      {"measurement": "ED50", "setting": "[3]", "value": "> 10", "unit": "mg/kg"}
    ]},
    {"smiles": "OCCN1CCN(CCCN2c3ccc(F)cc3Sc3ccc(Cl)cc32)CC1", "note": "[Lu 10-125, 2-chloro-7-fluoro-10-(3'-(4-(2-hydroxyethyl)-1-piperazinyl)propyl)-phenothiazine]", "values": [
      {"measurement": "ED50", "setting": "[1]", "value": 0.06, "unit": "mg/kg"},
      {"measurement": "ED50", "setting": "[2]", "value": 0.05, "unit": "mg/kg"},
      {"measurement": "ED50", "setting": "[3]", "value": "> 5", "unit": "mg/kg"}
    ]},
    {"smiles": "CN1CCN(CCCN2c3ccc(F)cc3Sc3ccc(S(=O)(=O)N(C)C)cc32)CC1", "note": "[Lu 11-075, 2-dimethylsulfamoyl-7-fluoro-10-(3'-(4-methyl-piperazin-1-yl)-propyl)phenothiazine]", "values": [
      {"measurement": "ED50", "setting": "[1]", "value": 0.7, "unit": "mg/kg"},
      {"measurement": "ED50", "setting": "[2]", "value": 0.44, "unit": "mg/kg"},
      {"measurement": "ED50", "setting": "[3]", "value": "> 5", "unit": "mg/kg"}
    ]},
    {"smiles": "CN(C)CCCN1c2ccc(F)cc2Sc2ccc(Cl)cc21", "note": "[Lu 10-152, 2-chloro-7-fluoro-10-(3'-dimethylaminopropyl)-phenothiazine]", "values": [
      {"measurement": "ED50", "setting": "[1]", "value": 2, "unit": "mg/kg"},
      {"measurement": "ED50", "setting": "[2]", "value": 2.1, "unit": "mg/kg"},
      {"measurement": "ED50", "setting": "[3]", "value": "> 20", "unit": "mg/kg"}
    ]},
    {"smiles": "CC(=O)c1ccc2c(c1)N(CCCN1CCN(CCO)CC1)c1ccc(F)cc1S2", "note": "[Lu 11-087, 2-acetyl-7-fluoro-10-(3'-(4-(2-hydroxyethyl)-1-piperazinyl)-propyl)phenothiazine]", "values": [
      {"measurement": "ED50", "setting": "[1]", "value": 0.06, "unit": "mg/kg"},
      {"measurement": "ED50", "setting": "[2]", "value": 0.07, "unit": "mg/kg"},
      {"measurement": "ED50", "setting": "[3]", "value": "> 1.25", "unit": "mg/kg"}
    ]}
  ]
}
